Like-named read-outs stand apart in the source and are kept apart here.
What was measured:
U937 cells [1] = assay: Cell viability by 7-AAD exclusion with or without KH7; type: cell-based, human; details: overnight, 6 μM KH7, 7-AAD staining
Method: Cells treated with ICE and control samples were incubated with 1 μg/ml of 7-AAD for 20-60 minutes at 4°C on a rotator in the dark, and analyzed by flow cytometry according to manufacturer instructions. Gates were set on 7-AAD negative and positive events based on histograms. Percent of 7-AAD negative events is shown.

U937 cells [2] = assay: F-cAMP efflux assay in U937 cells (screen and dose response); type: cell-based, human; details: for Outcome of screen for inhibitors of cAMP efflux after dose-response validation: screen at 10 μM, 51 hits retested in dose-response
Method: (§1) Cells were loaded with F-cAMP as described. Briefly, cells were resuspended in a hypertonic solution containing 10% polyethylene glycol 1000, 0.5 M sucrose, and 250 μM F-cAMP in cRPMI without FBS, incubated 10 min at room temperature, washed, and then resuspended in hypotonic solution (60% cRPMI, 40% sterile water) for 2 min at room temperature to complete F-cAMP loading. Cells were resuspended in cRPMI and equilibrated for 2 h under normal culture conditions.
(§2) Samples were evaluated using Accuri C6 or BD FACScan flow cytometers (Becton Dickinson (BD)).
Liquid handling was accomplished with a Biomek FX Multichannel system (Beckman-Coulter, Fullerton, CA, USA) and/or Biotek Multiflo system (Winooski, VT, USA). F-cAMP-loaded U937 cells (2000/well) were seeded into 384-well polypropylene plates (Greiner Bio-One 784201, Monroe, NC, USA). Cells were treated with compounds (10 μM final concentration) from the Prestwick Chemical Library (Illkirch, France) or […] Collection (MicroSource, Gaylordsville, CT, USA) delivered by pintool (V&P Scientific, San Diego, CA), at a final DMSO concentration of 1%. Plates were foil-sealed with AlumaSeal 384™ (Excel Scientific, Victorville, CA, USA), and incubated inverted overnight. Sample plates were analyzed by CyAn flow cytometers (Beckman-Coulter) configured with HyperCyt high-throughput auto-sampler systems (IntelliCyt, Albuquerque, NM, USA) using 488 nm excitation to assess FL-1 (530/40) MFI levels.
Data were analyzed with HyperView software (IntelliCyt) and time-gated to determine data from each well. Wells with ≥ 50 events were evaluated for FL-1 MFI values. Samples with MFI values ≥ 2 standard deviations above the plate mean negative control values were considered “hit” compounds.
To validate sample data and decrease the number of false-positive hits, compounds were assayed in a high-throughput dose response assay. Plates were set up as in the HTS, with the exception that the plate formats contained 10-well dose responses for each hit compound, at final concentrations ranging from 30 μM to 4 nM.
The dose response data were normalized for percent response based on sample FL-1 MFI values in comparison to untreated F-cAMP-loaded cells kept at 4°C overnight or at time = 0, and were fitted by GraphPad Prism 5 software (GraphPad Software, La Jolla, CA, USA) for sigmoidal dose response with constrained hill slope = 1.

[3] = test system: primary B-ALL patient samples; assay: CellTiter-Glo cell viability of primary ALL patient samples ex vivo; type: cell-based, human; details: for EC50: Homo sapiens
Method: Bone marrow samples were acquired at diagnosis from pediatric B-ALL patients. Mononuclear cells were enriched by centrifugation in Ficoll-Paque (GE Healthcare, cat. 17-1440-02) and aliquoted for storage in liquid nitrogen until use. Samples were thawed in a 37°C water bath, resuspended in 20% FBS cRPMI, and centrifuged to remove freezing medium. Cells were resuspended in conditioned medium (DMEM, 10% FBS, 50 U/ml penicillin-streptomycin, 2 mM L-glutamine) from HS-5 stromal cell cultures.
(§3) Cell viability was determined with the CellTiter-Glo® Luminescent Cell Viability Assay (Promega). Greiner 655083 had 100 μL cRPMI +/− 4×10^4 cells/well, and dose response curves of compounds ranged from 100 μM to 1.53 nM (1% DMSO). Wells with DMSO-only served as negative controls. Samples were incubated overnight, and the assay was completed according to the manufacturer's protocol. Plates were analyzed using a Victor^3V™ 1420 Multilabel Counter (Perkin Elmer).
For primary ALL patient samples, media consisted of 50% cRPMI, 50% conditioned DMEM from HS-5 stromal cell cultures and compounds. Cell densities ranged from 28,000-68,000 cells/well, and plates were foil-sealed prior to incubation.

[4] = parameters: method as in as printed in each cell; details: previously reported; cited from earlier work
U937 cells [5] = assay: MultiCyt 4-Plex apoptosis assay; type: cell-based, human; details: Homo sapiens, U-937, 24 h
Method: Apoptosis was determined using MultiCyt® 4-Plex Apoptosis Screening Kit (IntelliCyt, cat. 90053). The kit provides four different apoptosis endpoints that include effector caspases 3 and 7 activation, phosphatidylserine surface expression, mitochondrial membrane depolarization and cell membrane integrity. […] Cell membrane damage is detected by the uptake of a proprietary DNA intercalating agent analogous to 7-aminoactinomycin D.
384-well plates (Greiner 784201), pre-loaded with 5 μL cRPMI were stamped using a pintool with 100 nl of DMSO-solubilized compounds from the 100-fold concentrated stock solution. Next, 5 μL U937 cells (2 × 10^6/ml in cRPMI) were added to wells and mixed, and plates were foil-sealed. Compounds (Table 1) were tested in dose response at final concentrations ranging from 15.2 nM to 100 μM (1% DMSO final). Vehicle (DMSO) was used as a negative control. After 24 h incubation under culture conditions, the IntelliCyt MultiCyt 4-Plex Apoptosis Screening Kit was used according to manufacturer's protocol. The data were acquired using iQue Screener Platform (IntelliCyt). Singlet cell populations were analyzed for individual measures of apoptosis, and gates were set based on control histograms.

697 = assay: CellTiter-Glo cell viability; type: cell-based; details: Homo sapiens; overnight, n = 6, ± SEM; read-out: Compound EC50, 697 (cell viability)
Method: as §3

Sup B15 = assay: CellTiter-Glo cell viability; type: cell-based; details: Homo sapiens, overnight, n = 6, ± SEM, read-out: Compound EC50, Sup B15 (cell viability)
Method: as §3

U937 cells [6] = assay: CellTiter-Glo cell viability; type: cell-based; details: Homo sapiens, U-937; overnight, n = 8, ± SEM, fit top = 100, bottom = 0, hill slope = −1; read-out: Compound EC50, U937 (cell viability)
Method: as §3

RS4;11 = assay: CellTiter-Glo cell viability; type: cell-based; details: Homo sapiens, overnight, n = 6, ± SEM, read-out: Compound EC50, RS4;11 (cell viability)
Method: as §3

normal human PBMCs = assay: CellTiter-Glo cell viability; type: cell-based; details: PBMC, overnight, n = 6, ± SEM, read-out: Compound EC50, PBMCs (cell viability)
Method: Healthy PBMCs were obtained from volunteers. Mononuclear cells were purified using Mono-Poly resolving medium (MP Biomedicals, cat. 091698049) according to manufacturer's instructions. PBMCs were resuspended in cRPMI and kept on ice prior to use.
as §3

B-ALL cell lines [7] = assay: CellTiter-Glo cell viability, all B-ALL cell lines together; type: cell-based, human; details: for EC50: Homo sapiens, mean of converged EC50s of six B-ALL lines, read-out: Compound EC50, Mean B-ALL (cell viability); for Sensitivity of B-ALL lines compared with U937 cells: cell viability, overnight
Method: as §3

VLA-4 = molecular target: VLA-4; parameters: method as in PMID 18534032; details: cited from earlier work
B-ALL cell lines [8] = assay: F-cAMP efflux in B-ALL cell lines with MK-571; type: cell-based, human; details: 37°C
Method: as §1, §2

Reh = assay: CellTiter-Glo cell viability; type: cell-based; details: Homo sapiens, overnight, n = 6, ± SEM, read-out: Compound EC50, Reh (cell viability)
Method: as §3

[9] = mean of converged EC50s of six patient samples, read-out: Compound EC50 (Sample means), cell viability
[10] = primary B-ALL sample, duplicate, ± SEM, read-out: Compound EC50 (Patient no. 1), cell viability
[11] = primary B-ALL sample, duplicate, ± SEM, read-out: Compound EC50 (Patient no. 2), cell viability
[12] = primary B-ALL sample, duplicate, ± SEM, read-out: Compound EC50 (Patient no. 3), cell viability
[13] = primary B-ALL sample, duplicate, ± SEM, read-out: Compound EC50 (Patient no. 5), cell viability
[14] = primary B-ALL sample, duplicate, ± SEM, read-out: Compound EC50 (Patient no. 6), cell viability
[15] = mean of converged EC50s, read-out: Compound EC50, Means (of the apoptosis endpoints)
[16] = n = 4, ± SEM, read-out: Compound EC50, Cell membrane damage
[17] = n = 4, ± SEM, read-out: Compound EC50, Mitochondrial depolarization

For CC(Sc1nc2ccccc2[nH]1)C(=O)N/N=C/c1cc(Br)ccc1O (stereo not shown) [KH7], the “Effect of KH7 on cell viability loss induced by ICE” value (U937 cells [1]) was “significant protective effect”.

For O=C1c2ccc(O)c(O)c2C(=O)c2c(O)ccc(O)c21 [quinalizarin], the “Outcome of screen for inhibitors of cAMP efflux after dose-response validation” value (U937 cells [2]) was “potentially active”.

C[C@H]1[C@H](OC(=O)CCC(=O)O)O[C@@H]2O[C@@]3(C)CC[C@H]4[C@H](C)CC[C@@H]1[C@@]24OO3 [Artesunate] gave an EC50 [3, 9] of 84.6 µM, an EC50 [3, 10] of 116 ± 55.2 µM and an EC50 [3, 11] of 115 ± 22.7 µM. The EC50 [3, 12] was 66 ± 27.6 µM, the EC50 [3, 13] was 24.6 ± 12.2 µM and the EC50 [3, 14] was 100 ± 48.7 µM. The Anticancer effects [4] was “↓metastasis/migration [80, 83]; ↓VEGF expression/angiogenesis [70, 76, 80]; ↓cyclins B & D1, Cdks 2, 4, 6[70]; ↑p21, p27 [70]”, the “Potential mechanism(s) of action” value [4] was “↓NFκB & AP-1 activation [83, 130, 131]; ↓nitric oxide, cAMP-mediated, Wnt/β-catenin, PI3K/Akt signaling [81, 130, 131]; ↑ROS [70, 72, 78]” and the EC50 (U937 cells [5]; [15]) was 24.6 µM. For the same molecule, the EC50 (U937 cells [5]; n = 4, ± SEM, read-out: Compound EC50, Annexin-V +) was 29.5 ± 1.85 µM, the EC50 (U937 cells [5]; [16]) was 18.6 ± 1.89 µM and the EC50 (U937 cells [5]; [17]) was 25.7 ± 0.82 µM. For the same molecule, the EC50 697 was 99.6 ± 27.7 µM, the EC50 (Sup B15) was 326 ± 88.5 µM and the EC50 (U937 cells [6]) was 7.99 ± 3.24 µM. It also gave an EC50 (RS4;11) of 33.7 ± 10.6 µM, an EC50 (normal human PBMCs) of 280 ± 91.4 µM and an EC50 (B-ALL cell lines [7]) of 153 µM. For the same molecule, the “Sensitivity of B-ALL lines compared with U937 cells” value (B-ALL cell lines [7]) was “decreased sensitivity”.

For “4-((N'-2-methylphenyl)ureido)-phenylacetyl-L-leucyl-L-aspartyl-L-valyl-L-prolyl-L-alanyl-L-alanyl-L-lysine-FITC [LDV-FITC]”, the Kd (VLA-4; high affinity state, read-out: Kd for physiologically activated VLA-4) is given as 0.001 to 0.002 µM and the Kd (VLA-4; low affinity state, read-out: Kd for binding to resting VLA-4) is given as about 0.012 µM.

With CC1=NCCc2c1[nH]c1cc(O)ccc21 [harmalol] the “Outcome of screen for inhibitors of cAMP efflux after dose-response validation” value (U937 cells [2]) was “potentially active”.

With C[C@@H]1CC[C@H]2[C@@H](C)C(=O)O[C@@H]3O[C@@]4(C)CC[C@@H]1[C@]32OO4 [artemisinin] the “Outcome of screen for inhibitors of cAMP efflux after dose-response validation” value (U937 cells [2]) was “potentially active”.

In the case of CN(C)C(=O)CCSC(SCCC(=O)O)c1cccc(/C=C/c2ccc3ccc(Cl)cc3n2)c1 (stereo not shown) [MK-571], the EC50 (U937 cells [2]; Homo sapiens, U-937, read-out: EC50 for cAMP efflux blocking, U937 cells loaded with F-cAMP, overnight, 37°C) is reported as about 30 µM, the “Block of loss of F-cAMP probe fluorescence” value (U937 cells [2]; U937 cells, 24 h, 37°C) is reported as “A significant part of this loss was blocked” and the EC50 [3, 9] is reported as 298 µM. For the same molecule, the EC50 [3, 10] was 298 ± 140 µM, the “Active F-cAMP efflux in the presence of MK-571” value (B-ALL cell lines [8]; Group 1: Sup-B15 and MHH-Call3, overnight) was “blocked completely” and the “F-cAMP removed with MK-571” value (B-ALL cell lines [8]; Group 2: Reh and RS4;11, overnight, 75-80% without MK-571) was 30-40%. For the same molecule, the “F-cAMP removed with MK-571” value (B-ALL cell lines [8]; Group 3: 697 and Nalm-6, overnight, > 90% without MK-571) was 60-70%, the EC50 (Reh) was 226 ± 93.6 µM and the EC50 697 was 126 ± 109 µM. For the same molecule, the EC50 (Sup B15) was 144 ± 47.8 µM, the EC50 (U937 cells [6]) was 94.2 ± 35.5 µM and the EC50 (normal human PBMCs) was 157 ± 66.4 µM. For the same molecule, the EC50 (B-ALL cell lines [7]) was 165 µM.

C[C@H]1[C@@H](O)O[C@@H]2O[C@@]3(C)CC[C@H]4[C@H](C)CC[C@@H]1[C@@]24OO3 [Dihydroartemisinin] gave an EC50 [3, 9] of 46.6 µM, an EC50 [3, 11] of 47.5 ± 12.2 µM and an EC50 [3, 12] of 83.2 ± 74.2 µM. The EC50 [3, 13] was 11.5 ± 5.02 µM, the EC50 [3, 14] was 44.1 ± 32.2 µM and the “Cell viability vs. vehicle treated sample at lower concentrations” value ([3]; samples from patients no. 1 and no. 5) was “significant increase in cell viability”. For the same molecule, the Anticancer effects [4] was “↓VEGF expression & angiogenesis [99, 101, 102]; ↓cyclin B, CDC25 [87]”, the EC50 (U937 cells [5]; [15]) was 16.4 µM and the EC50 (U937 cells [5]; [16]) was 23.7 ± 19.4 µM. The EC50 (U937 cells [5]; [17]) was 9.21 ± 7.52 µM, the EC50 697 was 55.5 ± 16.8 µM and the EC50 (Sup B15) was 141 ± 49.5 µM. For the same molecule, the EC50 (U937 cells [6]) was 1.32 ± 0.58 µM, the EC50 (RS4;11) was 26.2 ± 7.94 µM and the EC50 (normal human PBMCs) was 128 ± 34.2 µM. The EC50 (B-ALL cell lines [7]) was 74.4 µM and the “Sensitivity of B-ALL lines compared with U937 cells” value (B-ALL cell lines [7]) was “decreased sensitivity”.
